{
  "source": "patent US7622256B2",
  "about": "“Method for selecting compounds that modulate MIF-induced expression of ICAM-1 and/or VCAM-1” (Avigen, Inc., priority 2006, dated 2009)",
  "key": {"[1]": {"test_system": "rMIF-induced cell surface ICAM-1 expression in PBMCs", "assay": "Cell surface ELISA of ICAM-1 expression in stimulated PBMC culture", "format": "cell-based, Human", "settings": "for % change in ICAM-1 expression with ibudilast: normalized to no stimulant levels, n = 2", "method": "(§1) In order to determine whether ibudilast antagonized MIF activity, a peripheral blood mononuclear cell (PBMC) culture model was used. Human PBMCs were isolated by Ficoll gradient. Cells were plated in a 96-well tissue culture plate in RPMI medium without serum and incubated overnight to achieve quiescence. They were then treated with 0.1% DMSO (vehicle) or ibudilast at 10 μM, one hour prior to stimulation with recombinant human MIF (0.8, 8, or 80 nM) or LPS (10 ng/mL). 9 hours post-stimulation, the adherent cells were fixed and analyzed for expression of […] adhesion molecule-1 (ICAM-1) and vascular cell adhesion molecule-1 (VCAM-1) via cell surface enzyme linked immunosorbent assay (ELISA)."}, "[2]": {"test_system": "rMIF-induced cell surface VCAM-1 expression in PBMCs", "assay": "Cell surface ELISA of VCAM-1 expression in stimulated PBMC culture", "format": "cell-based, Human", "settings": "for % change in VCAM-1 expression with ibudilast: normalized to no stimulant levels, n = 2", "method": "as §1"}, "[3]": {"settings": "10 μM ibudilast 1 h before stimulant, LPS 10 ng/mL, 9 hours post-stimulation"}, "[4]": {"settings": "10 μM ibudilast 1 h before stimulant, MIF 0.8 nM, 9 hours post-stimulation"}, "[5]": {"settings": "10 μM ibudilast 1 h before stimulant, MIF 8 nM, 9 hours post-stimulation"}, "[6]": {"settings": "10 μM ibudilast 1 h before stimulant, MIF 80 nM, 9 hours post-stimulation"}, "[7]": {"settings": "10 μM ibudilast, No Stimulant (quiescent cells)"}, "[8]": {"settings": "10 μM ibudilast, recombinant human MIF stimulation"}},
  "data": [
    {"compound": "CC(C)C(=O)c1c(C(C)C)nn2ccccc12", "note": "[ibudilast, 3-isobutyryl-2-isopropylpyrazolo[1,5-a]pyridine]", "values": [
      {"measurement": "% change in ICAM-1 expression with ibudilast", "setting": "[1]; [3]", "value": 74.5, "unit": "%"},
      {"measurement": "% change in ICAM-1 expression with ibudilast", "setting": "[1]; [4]", "value": "−2.5", "unit": "%"},
      {"measurement": "% change in ICAM-1 expression with ibudilast", "setting": "[1]; [5]", "value": "−0.95", "unit": "%"},
      {"measurement": "% change in ICAM-1 expression with ibudilast", "setting": "[1]; [6]", "value": "−1.3", "unit": "%"},
      {"measurement": "effect on LPS induction of ICAM-1 (in words)", "setting": "[1]; 10 μM ibudilast, LPS 10 ng/mL", "value": "not significantly affected"},
      {"measurement": "% change in ICAM-1 expression with ibudilast", "setting": "[1]; [7]", "value": 30.9, "unit": "%"},
      {"measurement": "effect on recombinant MIF-induced expression of ICAM-1 (in words)", "setting": "[1]; [8]", "value": "antagonizes"},
      {"measurement": "% change in VCAM-1 expression with ibudilast", "setting": "[2]; [3]", "value": "−1.5", "unit": "%"},
      {"measurement": "% change in VCAM-1 expression with ibudilast", "setting": "[2]; [4]", "value": "−2.9", "unit": "%"},
      {"measurement": "% change in VCAM-1 expression with ibudilast", "setting": "[2]; [5]", "value": 4.4, "unit": "%"},
      {"measurement": "% change in VCAM-1 expression with ibudilast", "setting": "[2]; [6]", "value": 5.4, "unit": "%"},
      {"measurement": "effect on LPS induction of VCAM-1 (in words)", "setting": "[2]; 10 μM ibudilast, LPS 10 ng/mL", "value": "not significantly affected"},
      {"measurement": "% change in VCAM-1 expression with ibudilast", "setting": "[2]; [7]", "value": 95.1, "unit": "%"},
      {"measurement": "effect on recombinant MIF-induced expression of VCAM-1 (in words)", "setting": "[2]; [8]", "value": "antagonizes"}
    ]}
  ]
}
